Read-outs that look alike come from different tables or passages of the source.
System: THP-1 cells
Assay: hTHP-1 assay: gramicidin-stimulated IL-1β detection in PMA-treated THP-1 cells
Type: cell-based, human
Protocol: The following protocol is suitable for testing the activity of the compounds disclosed herein.
1. Experimental procedure • 1.1 Cell Culture • 1) Culture THP-1 cells in the complete RPMI-1640 medium with 10% FBS at 37° C., 5% CO2. • 2) Passage the cells every 3 days by inoculating 3×10^5 cells per ml. • 1.2 Compound Preparation • Prepare the 3-fold serial dilution of the compounds with DMSO in a 384-well LDV Microplate using TECAN EVO system to generate the compound source plate with 10 concentrations. […] HC: 100 μM CRID3 (MCC950)+5 μM gramicidin LC: 5 μM Gramicidin. • 1.5 IL-1β Detection • 1) Homogenize the 5× diluent #5 with a vortex and add 1 volume of stock solution in 4 volumes of distilled water. • 2) Thaw 20× stock solution of anti-IL1β-Cryptate-antibody and anti-IL1β XL-antibody. Dilute these two antibodies to 1× with detection buffer #3. • 3) Pre-mix the two ready-to-use antibody solutions just prior to use. • 4) Dispense 4 ul of pre-mixed Anti-IL1β antibodies working solution into all wells. • 5) Seal the plate and incubate overnight at 4° C. • 6) Read the cell plate using EnVison and plot Readout vs. the test compound concentration to calculate the IC50.
2. Data Analysis: • 1. IC50 of compounds can be calculated using the following formulas • Formula for IC50
% inhibition=100−100×[HCave-Readout/(HCave−LCave)] • 2. Fit the normalized data in a dose-response manner using XLfit, and calculate the compound concentration.

[1] = Table B1, 2% fetal bovine serum, class symbol, read-out: hTHP-1 IC50
[2] = Table B1, 2% fetal bovine serum, numeric value, read-out: hTHP-1 IC50
[3] = Homo sapiens, THP-1, Table B1, 2% fetal bovine serum, class symbol, read-out: hTHP-1 IC50
[4] = Homo sapiens, THP-1, Table B1, 2% fetal bovine serum, numeric value, read-out: hTHP-1 IC50

Compound	IC50 [1] [nM]	IC50 [2] [nM]	also measured
NS(=O)(=NC(=O)Nc1c2c(nc(C(F)(F)F)c1C1CC1)CCC2)c1ccn(C2CC2)n1 (racemic) [Example 899, (S) or (RS)-1-cyclopropyl-N′-((3-cyclopropyl-2-(trifluoromethyl)-6,7-dihydro-5H-cyclopenta [b]pyridin-4-yl)carbamoyl)-1H-pyrazole-3-sulfonimidamide]			IC50 (Homo sapiens, THP-1, Table B2, 10% FBS, class symbol, read-out: hTHP-1 IC50 in 10% FBS): 5000 to 30000 nM; IC50 (Homo sapiens, THP-1, Table B2, 10% FBS, numeric value, read-out: hTHP-1 IC50 in 10% FBS): 9960 nM
CC(C)(O)c1csc(S(=O)(=NC(=O)Nc2c3c(cc4c2CCC4)CCC3)NC#N)c1 (single isomer, unassigned) [Example 1, (S) or (R)-N-cyano-N′-(1,2,3,5,6,7-hexahydro-s-indacen-4-ylcarbamoyl)-4-(2-hydroxypropan-2-yl)thiophene-2-sulfonimidamide]	40 to 200	53.5	
CC(C)(O)c1csc(S(=O)(=NC(=O)Nc2c3c(cc4c2CCC4)CCC3)NC#N)c1 (single isomer, unassigned) [Example 2, (R) or (S)-N-cyano-N′-((1,2,3,5,6,7-hexahydro-s-indacen-4-yl)carbamoyl)-4-(2-hydroxypropan-2-yl)thiophene-2-sulfonimidamide]	8 to 40	14.6	
CC(C)(O)c1ncc(S(=O)(=NC(=O)Nc2c3c(nc4c2CCC4(C)C)CCC3)NC#N)s1 (single isomer, unassigned) [Example 4, (S) or (R)-N-cyano-N′-((3,3-dimethyl-1,2,3,5,6,7-hexahydrodicyclopenta[b,e]pyridin-8-yl)carbamoyl)-2-(2-hydroxypropan-2-yl)thiazole-5-sulfonimidamide]	40 to 200	59.7	
CC(C)(O)c1ncc(S(=O)(=NC(=O)Nc2c3c(nc4c2CCC4(C)C)CCC3)NC#N)s1 (single isomer, unassigned) [Example 5, (R) or (S)-N-cyano-N′-((3,3-dimethyl-1,2,3,5,6,7-hexahydrodicyclopenta[b,e]pyridin-8-yl)carbamoyl)-2-(2-hydroxypropan-2-yl)thiazole-5-sulfonimidamide]	200 to 1000	236	
CC(C)(O)c1csc(S(=O)(=NC(=O)Nc2c3c(cc4c2CC4)CCC3)NC#N)c1 (single isomer, unassigned) [Example 6, (R) or (S)-N-cyano-4-(2-hydroxypropan-2-yl)-N′-((2,4,5,6-tetrahydro-1H-cyclobuta[f]inden-3-yl)carbamoyl)thiophene-2-sulfonimidamide]	40 to 200	71.7	
CC(C)(O)c1csc(S(=O)(=NC(=O)Nc2c3c(cc4c2CC4)CCC3)NC#N)c1 (single isomer, unassigned) [Example 7, (S) or (R)-N-cyano-4-(2-hydroxypropan-2-yl)-N′-((2,4,5,6-tetrahydro-1H-cyclobuta[f]inden-3-yl)carbamoyl)thiophene-2-sulfonimidamide]	< 8	6.8	
CC(C)(O)c1ccc(CS(=O)(=NC(=O)Nc2c3c(cc4c2CCC4)CCC3)NC#N)cc1 (single isomer, unassigned) [Example 8, (S) or (R)-N-cyano-N′-((1,2,3,5,6,7-hexahydro-s-indacen-4-yl)carbamoyl)-1-(4-(2-hydroxypropan-2-yl)phenyl)methanesulfonimidamide]		42.2	IC50 [3]: 40 to 200 nM
CC(C)(O)c1ccc(CS(=O)(=NC(=O)Nc2c3c(cc4c2CCC4)CCC3)NC#N)cc1 (single isomer, unassigned) [Example 9, (R) or (S)-N-cyano-N′-((1,2,3,5,6,7-hexahydro-s-indacen-4-yl)carbamoyl)-1-(4-(2-hydroxypropan-2-yl)phenyl)methanesulfonimidamide]	40 to 200	104	
Cc1oc(S(=O)(=NC(=O)Nc2c(C(C)C)cc(F)cc2C(C)C)NC#N)cc1C(C)(C)O (single isomer, unassigned) [Example 10, (S) or (R)-N-cyano-N′-((4-fluoro-2,6-diisopropylphenyl)carbamoyl)-4-(2-hydroxypropan-2-yl)-5-methylfuran-2-sulfonimidamide]	1000 to 5000	2440	
Cc1oc(S(=O)(=NC(=O)Nc2c(C(C)C)cc(F)cc2C(C)C)NC#N)cc1C(C)(C)O (single isomer, unassigned) [Example 11, (R) or (S)-N-cyano-N′-((4-fluoro-2,6-diisopropylphenyl)carbamoyl)-4-(2-hydroxypropan-2-yl)-5-methylfuran-2-sulfonimidamide]	40 to 200	90.6	
CC(C)(O)c1nc(CO)c(S(=O)(=NC(=O)Nc2c3c(nc4c2CCC4(C)C)CCC3)NC#N)s1 (single isomer, unassigned) [Example 13, (R) or (S)-N-cyano-N′-((3,3-dimethyl-1,2,3,5,6,7-hexahydrodicyclopenta[b,e]pyridin-8-yl)carbamoyl)-4-(hydroxymethyl)-2-(2-hydroxypropan-2-yl)thiazole-5-sulfonimidamide]			IC50 [3]: 40 to 200 nM; IC50 [4]: 112 nM
CN(C)Cc1ccc(S(=O)(=NC(=O)Nc2c3c(cc4c2CCC4)CCC3)NC#N)c(F)c1 (single isomer, unassigned) [Example 14, (S) or (R)-N-cyano-4-((dimethylamino)methyl)-2-fluoro-N′-((1,2,3,5,6,7-hexahydro-s-indacen-4-yl)carbamoyl)benzenesulfonimidamide]	40 to 200	973	
CN(C)Cc1ccc(S(=O)(=NC(=O)Nc2c3c(cc4c2CCC4)CCC3)NC#N)c(F)c1 (single isomer, unassigned) [Example 15, (R) or (S)-N-cyano-4-((dimethylamino)methyl)-2-fluoro-N′-((1,2,3,5,6,7-hexahydro-s-indacen-4-yl)carbamoyl)benzenesulfonimidamide]	200 to 1000	209	
CC1CCc2c1nc1c(c2NC(=O)N=S(=O)(NC#N)c2cc(C(C)(C)O)cs2)CCC1 (single isomer, unassigned) [Example 16, (R,R) or (R,S)-N-cyano-4-(2-hydroxypropan-2-yl)-N′-(((S)-3-methyl-1,2,3,5,6,7-hexahydrodicyclopenta[b,e]pyridin-8-yl)carbamoyl)thiophene-2-sulfonimidamide]	200 to 1000	204	
CC1CCc2c1nc1c(c2NC(=O)N=S(=O)(NC#N)c2cc(C(C)(C)O)cs2)CCC1 (single isomer, unassigned) [Example 17, (R,S) or (R,R)-N-cyano-4-(2-hydroxypropan-2-yl)-N′-(((R)-3-methyl-1,2,3,5,6,7-hexahydrodicyclopenta[b,e]pyridin-8-yl)carbamoyl)thiophene-2-sulfonimidamide]	1000 to 5000	1240	
CC1CCc2c1nc1c(c2NC(=O)N=S(=O)(NC#N)c2cc(C(C)(C)O)cs2)CCC1 (single isomer, unassigned) [Example 18, (S,S) or (S,R)-N-cyano-4-(2-hydroxypropan-2-yl)-N′-(((S)-3-methyl-1,2,3,5,6,7-hexahydrodicyclopenta[b,e]pyridin-8-yl)carbamoyl)thiophene-2-sulfonimidamide]	40 to 200	80.3	
CC1CCc2c1nc1c(c2NC(=O)N=S(=O)(NC#N)c2cc(C(C)(C)O)cs2)CCC1 (single isomer, unassigned) [Example 19, (S,R) or (S,S)-N-cyano-4-(2-hydroxypropan-2-yl)-N′-(((R)-3-methyl-1,2,3,5,6,7-hexahydrodicyclopenta[b,e]pyridin-8-yl)carbamoyl)thiophene-2-sulfonimidamide]	200 to 1000	705	
CC(C)c1cc(C#N)c(F)c(C(C)C)c1NC(=O)N=S(=O)(NC#N)c1cnc(C(C)(C)O)s1 (single isomer, unassigned) [Example 20, (S) or (R)-N-cyano-N′-((4-cyano-3-fluoro-2,6-diisopropylphenyl)carbamoyl)-2-(2-hydroxypropan-2-yl)thiazole-5-sulfonimidamide]	1000 to 5000	2750	
CC(C)c1cc(C#N)c(F)c(C(C)C)c1NC(=O)N=S(=O)(NC#N)c1cnc(C(C)(C)O)s1 (single isomer, unassigned) [Example 21, (R) or (S)-N-cyano-N′-((4-cyano-3-fluoro-2,6-diisopropylphenyl)carbamoyl)-2-(2-hydroxypropan-2-yl)thiazole-5-sulfonimidamide]	40 to 200	50.8	
CC(C)c1cc(C#N)cc(C(C)C)c1NC(=O)N=S(=O)(NC#N)c1sc(C(C)(C)O)nc1CO (single isomer, unassigned) [Example 22, (R) or (S)-N-cyano-N′-((4-cyano-2,6-diisopropylphenyl)carbamoyl)-4-(hydroxymethyl)-2-(2-hydroxypropan-2-yl)thiazole-5-sulfonimidamide]			IC50 [3]: 40 to 200 nM; IC50 [4]: 79.2 nM

Reference: patent US20230063462A1, “SULFONIMIDAMIDE COMPOUNDS AND COMPOSITIONS FOR TREATING CONDITIONS ASSOCIATED WITH NLRP ACTIVITY” (NOVARTIS AG, priority 2019, published 2023)
